In patent US10870647B2, “Imidazopyridine derivative, method for preparing same, and pharmaceutical composition containing same as active ingredient for preventing or treating cancer” (DAEGU-GYEONGBUK MEDICAL INNOVATION FOUNDATION, priority 2016, dated 2020):
Where two headings read alike, the source gives them in different places.

Key:
Test in all cases: Kinase selectivity, scanMAX Kinase assay panel (DiscoverX), % control at 1 uM
Assay type in all cases: binding
[1] = biological target: T1, scanMAX Kinase assay panel (Homo sapiens, UniProt O60674); conditions: JAK2 (JH1domain-catalytic); 1 uM; read-out: Percent Control (%)
T1 construct: purchased DiscoverX
In short: (§1)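 Each kinase was first exposed to the test compound at 1 uM in DMSO. Signal was then normalised to positive and negative controls to give % control. Finally, any enzyme showing <35% control was judged inhibited.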

[2] = biological target: T2, scanMAX Kinase assay panel (Homo sapiens, UniProt P07949, M918T); conditions: RET (M918T); 1 uM; read-out: Percent Control (%)
T2 construct: purchased DiscoverX
In short: as §1

[3] = biological target: T3, scanMAX Kinase assay panel (Homo sapiens, UniProt Q02156); conditions: PRKCE; 1 uM; read-out: Percent Control (%)
T3 construct: purchased DiscoverX
T3 sequence (Q02156 1-737): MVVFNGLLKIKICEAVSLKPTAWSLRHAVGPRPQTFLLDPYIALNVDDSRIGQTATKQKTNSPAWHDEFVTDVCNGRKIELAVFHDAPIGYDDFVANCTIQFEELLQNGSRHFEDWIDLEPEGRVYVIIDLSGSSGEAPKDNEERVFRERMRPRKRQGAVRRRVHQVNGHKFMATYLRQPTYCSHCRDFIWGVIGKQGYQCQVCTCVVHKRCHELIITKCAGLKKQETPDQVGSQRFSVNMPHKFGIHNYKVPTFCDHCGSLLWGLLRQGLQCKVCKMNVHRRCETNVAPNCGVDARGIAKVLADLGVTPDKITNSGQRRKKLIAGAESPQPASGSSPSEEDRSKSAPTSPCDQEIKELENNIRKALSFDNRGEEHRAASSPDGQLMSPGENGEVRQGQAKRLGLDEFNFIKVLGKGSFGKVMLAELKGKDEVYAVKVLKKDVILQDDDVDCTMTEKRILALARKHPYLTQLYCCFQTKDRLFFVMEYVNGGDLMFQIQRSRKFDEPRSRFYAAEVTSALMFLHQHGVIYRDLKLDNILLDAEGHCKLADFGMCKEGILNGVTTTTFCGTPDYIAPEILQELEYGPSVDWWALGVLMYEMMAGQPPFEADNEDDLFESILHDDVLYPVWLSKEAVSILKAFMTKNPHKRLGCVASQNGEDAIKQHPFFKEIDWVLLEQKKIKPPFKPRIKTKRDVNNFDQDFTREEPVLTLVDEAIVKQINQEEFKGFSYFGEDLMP
In short: as §1

[4] = biological target: T4, scanMAX Kinase assay panel (Homo sapiens, UniProt Q13976); conditions: PRKG1; 1 uM; read-out: Percent Control (%)
T4 construct: purchased DiscoverX
T4 sequence (Q13976 1-671): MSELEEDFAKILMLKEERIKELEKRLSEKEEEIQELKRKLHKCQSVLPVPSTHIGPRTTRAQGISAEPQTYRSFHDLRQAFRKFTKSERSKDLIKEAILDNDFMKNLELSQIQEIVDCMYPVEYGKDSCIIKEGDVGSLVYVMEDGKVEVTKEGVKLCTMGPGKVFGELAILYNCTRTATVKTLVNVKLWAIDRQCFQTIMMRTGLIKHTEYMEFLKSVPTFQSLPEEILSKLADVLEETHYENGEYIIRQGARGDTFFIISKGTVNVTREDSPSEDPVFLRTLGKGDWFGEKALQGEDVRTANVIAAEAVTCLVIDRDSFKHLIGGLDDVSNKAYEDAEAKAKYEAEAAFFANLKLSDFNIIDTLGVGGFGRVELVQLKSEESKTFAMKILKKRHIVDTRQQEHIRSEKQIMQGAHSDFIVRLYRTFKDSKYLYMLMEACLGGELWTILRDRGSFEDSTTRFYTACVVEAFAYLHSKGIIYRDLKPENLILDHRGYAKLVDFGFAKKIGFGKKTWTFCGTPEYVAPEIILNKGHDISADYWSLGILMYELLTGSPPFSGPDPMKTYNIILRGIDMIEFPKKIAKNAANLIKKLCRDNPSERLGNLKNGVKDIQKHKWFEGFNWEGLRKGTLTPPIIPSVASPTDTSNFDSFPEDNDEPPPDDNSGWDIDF
In short: as §1

[5] = biological target: T5, scanMAX Kinase assay panel (Homo sapiens, UniProt Q15349); conditions: 1 uM, read-out: Percent Control (%)
T5 construct: purchased DiscoverX
In short: as §1

[6] = biological target: T6, scanMAX Kinase assay panel (Homo sapiens, UniProt Q8TDC3); conditions: BRSK1; 1 uM; read-out: Percent Control (%)
T6 construct: purchased DiscoverX
T6 sequence (Q8TDC3 1-778): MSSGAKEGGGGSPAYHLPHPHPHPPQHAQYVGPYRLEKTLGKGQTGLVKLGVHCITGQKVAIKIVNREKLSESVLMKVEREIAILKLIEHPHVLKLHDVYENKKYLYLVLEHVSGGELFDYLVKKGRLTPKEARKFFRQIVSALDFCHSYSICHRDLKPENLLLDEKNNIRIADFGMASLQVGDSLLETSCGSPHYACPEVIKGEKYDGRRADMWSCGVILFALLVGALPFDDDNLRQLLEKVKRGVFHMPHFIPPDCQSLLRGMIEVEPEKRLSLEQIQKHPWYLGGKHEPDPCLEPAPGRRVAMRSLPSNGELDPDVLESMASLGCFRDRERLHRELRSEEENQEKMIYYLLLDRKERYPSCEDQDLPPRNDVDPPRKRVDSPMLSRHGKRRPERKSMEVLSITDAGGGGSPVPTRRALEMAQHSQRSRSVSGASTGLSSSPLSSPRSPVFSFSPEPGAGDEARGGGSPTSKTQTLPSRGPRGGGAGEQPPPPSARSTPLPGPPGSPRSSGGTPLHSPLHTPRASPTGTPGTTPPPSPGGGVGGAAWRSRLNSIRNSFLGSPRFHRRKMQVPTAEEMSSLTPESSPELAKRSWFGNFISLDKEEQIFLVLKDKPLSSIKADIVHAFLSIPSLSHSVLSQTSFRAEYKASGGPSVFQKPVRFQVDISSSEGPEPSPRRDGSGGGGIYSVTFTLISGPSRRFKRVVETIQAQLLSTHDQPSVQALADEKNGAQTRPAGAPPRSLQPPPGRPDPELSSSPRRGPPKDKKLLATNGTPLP
In short: as §1

[7] = biological target: T7, scanMAX Kinase assay panel (Homo sapiens, UniProt Q9UIK4); conditions: DAPK2; 1 uM; read-out: Percent Control (%)
T7 construct: purchased DiscoverX
In short: as §1

T7 sequence (Q9UIK4 whole entry): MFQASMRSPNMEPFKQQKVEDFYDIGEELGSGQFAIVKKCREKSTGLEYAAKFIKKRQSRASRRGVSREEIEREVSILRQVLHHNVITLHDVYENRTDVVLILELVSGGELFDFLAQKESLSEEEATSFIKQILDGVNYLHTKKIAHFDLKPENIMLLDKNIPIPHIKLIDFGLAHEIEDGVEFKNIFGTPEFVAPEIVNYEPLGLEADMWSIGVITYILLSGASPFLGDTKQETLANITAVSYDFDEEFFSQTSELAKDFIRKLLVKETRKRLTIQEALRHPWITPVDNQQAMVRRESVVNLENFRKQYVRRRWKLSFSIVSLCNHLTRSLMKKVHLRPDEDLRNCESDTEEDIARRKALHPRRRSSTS
T1 sequence (O60674 whole entry): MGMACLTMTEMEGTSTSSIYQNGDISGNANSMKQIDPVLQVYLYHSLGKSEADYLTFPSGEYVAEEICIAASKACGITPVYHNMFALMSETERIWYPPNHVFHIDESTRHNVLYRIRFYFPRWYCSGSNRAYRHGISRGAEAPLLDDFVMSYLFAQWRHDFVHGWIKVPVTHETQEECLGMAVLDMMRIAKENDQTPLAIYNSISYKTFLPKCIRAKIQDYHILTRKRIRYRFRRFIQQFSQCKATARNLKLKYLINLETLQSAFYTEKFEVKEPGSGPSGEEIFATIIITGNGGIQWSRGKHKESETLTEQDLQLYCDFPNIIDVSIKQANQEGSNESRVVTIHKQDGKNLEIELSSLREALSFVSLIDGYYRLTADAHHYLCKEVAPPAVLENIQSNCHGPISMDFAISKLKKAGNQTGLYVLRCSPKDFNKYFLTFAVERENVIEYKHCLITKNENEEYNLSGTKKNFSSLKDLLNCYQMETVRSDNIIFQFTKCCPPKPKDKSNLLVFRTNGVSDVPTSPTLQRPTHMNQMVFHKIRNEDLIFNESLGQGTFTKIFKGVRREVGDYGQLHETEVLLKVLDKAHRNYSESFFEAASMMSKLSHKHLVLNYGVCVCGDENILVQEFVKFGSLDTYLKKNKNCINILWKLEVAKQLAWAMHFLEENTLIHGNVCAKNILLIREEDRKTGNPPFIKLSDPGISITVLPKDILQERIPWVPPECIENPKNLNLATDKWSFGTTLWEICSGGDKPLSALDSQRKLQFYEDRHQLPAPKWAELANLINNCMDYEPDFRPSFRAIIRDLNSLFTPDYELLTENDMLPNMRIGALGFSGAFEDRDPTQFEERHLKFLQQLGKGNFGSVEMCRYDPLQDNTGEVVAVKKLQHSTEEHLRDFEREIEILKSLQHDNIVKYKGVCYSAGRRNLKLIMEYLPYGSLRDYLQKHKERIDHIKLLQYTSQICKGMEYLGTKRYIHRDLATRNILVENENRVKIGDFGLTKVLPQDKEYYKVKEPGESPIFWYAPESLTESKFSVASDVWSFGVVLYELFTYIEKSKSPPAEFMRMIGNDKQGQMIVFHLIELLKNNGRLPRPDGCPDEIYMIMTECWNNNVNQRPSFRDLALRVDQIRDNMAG
T2 sequence (P07949 29-1114 M918T): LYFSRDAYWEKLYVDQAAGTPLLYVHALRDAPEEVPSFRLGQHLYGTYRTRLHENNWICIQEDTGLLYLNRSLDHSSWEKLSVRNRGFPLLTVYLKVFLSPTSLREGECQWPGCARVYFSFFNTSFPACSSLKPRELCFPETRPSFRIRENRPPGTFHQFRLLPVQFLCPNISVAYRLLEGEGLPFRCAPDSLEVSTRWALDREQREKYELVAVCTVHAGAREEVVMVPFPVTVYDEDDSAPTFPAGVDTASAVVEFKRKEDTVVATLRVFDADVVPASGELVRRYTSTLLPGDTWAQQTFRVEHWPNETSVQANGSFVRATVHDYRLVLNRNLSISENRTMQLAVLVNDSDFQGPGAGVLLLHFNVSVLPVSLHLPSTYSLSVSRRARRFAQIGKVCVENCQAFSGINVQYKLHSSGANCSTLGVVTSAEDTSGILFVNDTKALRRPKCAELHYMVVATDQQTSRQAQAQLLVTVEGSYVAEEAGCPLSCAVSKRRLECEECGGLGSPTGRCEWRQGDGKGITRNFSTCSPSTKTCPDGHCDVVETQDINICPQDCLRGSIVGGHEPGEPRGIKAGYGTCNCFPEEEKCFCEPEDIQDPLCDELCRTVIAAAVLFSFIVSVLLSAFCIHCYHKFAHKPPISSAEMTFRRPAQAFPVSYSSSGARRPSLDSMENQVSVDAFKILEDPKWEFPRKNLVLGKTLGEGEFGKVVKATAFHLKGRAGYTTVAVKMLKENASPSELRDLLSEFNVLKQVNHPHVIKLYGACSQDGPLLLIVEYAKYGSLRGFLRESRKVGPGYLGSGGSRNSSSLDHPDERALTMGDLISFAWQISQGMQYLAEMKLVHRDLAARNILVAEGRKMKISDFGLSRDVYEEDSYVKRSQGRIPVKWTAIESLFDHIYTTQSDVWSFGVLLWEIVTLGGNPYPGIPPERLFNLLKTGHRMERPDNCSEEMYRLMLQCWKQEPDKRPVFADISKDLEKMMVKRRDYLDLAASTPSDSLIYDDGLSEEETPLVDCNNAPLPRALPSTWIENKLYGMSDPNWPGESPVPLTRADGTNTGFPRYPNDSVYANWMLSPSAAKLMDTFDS
T5 sequence (Q15349 whole entry): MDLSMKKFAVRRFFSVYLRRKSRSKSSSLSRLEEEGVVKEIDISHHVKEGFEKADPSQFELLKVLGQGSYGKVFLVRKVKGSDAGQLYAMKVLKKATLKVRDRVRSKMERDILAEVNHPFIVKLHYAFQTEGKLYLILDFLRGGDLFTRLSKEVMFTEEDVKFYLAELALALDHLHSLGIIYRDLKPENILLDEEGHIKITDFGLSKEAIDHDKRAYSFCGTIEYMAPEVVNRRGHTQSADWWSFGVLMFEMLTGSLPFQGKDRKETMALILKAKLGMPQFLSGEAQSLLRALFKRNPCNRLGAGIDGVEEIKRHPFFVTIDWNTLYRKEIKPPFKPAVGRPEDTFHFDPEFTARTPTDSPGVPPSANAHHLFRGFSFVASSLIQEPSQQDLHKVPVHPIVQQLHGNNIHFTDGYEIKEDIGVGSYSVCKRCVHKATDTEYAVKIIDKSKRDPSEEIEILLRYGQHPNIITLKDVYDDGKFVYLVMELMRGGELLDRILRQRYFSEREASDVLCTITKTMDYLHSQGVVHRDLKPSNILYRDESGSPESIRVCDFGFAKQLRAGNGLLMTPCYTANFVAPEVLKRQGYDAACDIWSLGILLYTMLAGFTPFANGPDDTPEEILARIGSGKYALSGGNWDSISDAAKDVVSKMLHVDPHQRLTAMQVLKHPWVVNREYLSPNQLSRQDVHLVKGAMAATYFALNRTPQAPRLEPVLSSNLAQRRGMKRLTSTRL

Work on `Cc1ccc(NC(=O)C2(C(=O)Nc3ccc(F)cc3)CC2)cc1C#Cc1cnc2c(Nc3cnn(C(C)C)c3)cccn12` [Example 78] yielded a remaining binding at 1 µM [1] of 98%, a remaining binding at 1 µM [2] of 100% and a remaining binding at 1 µM [3] of 90%. For the same compound, the remaining binding at 1 µM [4] was 100%, the remaining binding at 1 µM ([5]; RSK3 (Kin.Dom.1-N-terminal)) was 97% and the remaining binding at 1 µM ([5]; RSK3 (Kin.Dom.2-C-terminal)) was 100%. The remaining binding at 1 µM [6] was 100% and the remaining binding at 1 µM [7] was 100%.

`Cc1cn(-c2cc(NC(=O)c3ccc(C)c(C#Cc4cnc5c(Nc6cnn(C)c6)cccn45)c3)cc(C(F)(F)F)c2)cn1` [Example 12, 4-methyl-N-(3-(4-methyl-1H-imidazol-1-yl)-5-(trifluoromethyl)phenyl)-3-((8-((1-methyl-1H-pyrazol-4-yl)amino)imidazo[1,2-a]pyridin-3-yl)ethynyl)benzamide] gave a remaining binding at 1 µM [1] of 100%, a remaining binding at 1 µM [2] of 0% and a remaining binding at 1 µM [3] of 71%. For the same compound, the remaining binding at 1 µM [4] was 86%, the remaining binding at 1 µM ([5]; RSK3 (Kin.Dom.1-N-terminal)) was 65% and the remaining binding at 1 µM ([5]; RSK3 (Kin.Dom.2-C-terminal)) was 86%. It also gave a remaining binding at 1 µM [6] of 83% and a remaining binding at 1 µM [7] of 97%.

In the case of `Cc1ccc(C(=O)Nc2ccc(CN3CCN(C)CC3)c(C(F)(F)F)c2)cc1C#Cc1cnc2c(Nc3cnn(C)c3)cccn12` [Example 1, 4-methyl-3-((8-((1-methyl-1H-pyrazol-4-yl)amino)imidazo[1,2-a]pyridin-3-yl)ethynyl)-N-(4-((4-methylpiperazin-1-yl)methyl)-3-(trifluoromethyl)phenyl)benzamide], the remaining binding at 1 µM [1] is reported as 7%, the remaining binding at 1 µM [2] is reported as 0% and the remaining binding at 1 µM [3] is reported as 67%. It also gave a remaining binding at 1 µM [4] of 94%, a remaining binding at 1 µM ([5]; RSK3 (Kin.Dom.1-N-terminal)) of 29% and a remaining binding at 1 µM ([5]; RSK3 (Kin.Dom.2-C-terminal)) of 61%. For the same compound, the remaining binding at 1 µM [6] was 100% and the remaining binding at 1 µM [7] was 82%.
